In one experiment the target is T1, human PDE9A2 (Homo sapiens, UniProt O76083).
T1 construct: made in house; host or cells: Sf9 insect cells (infected; crude lysate used as enzyme source)
The experiment can be described thus: PDE9A2 enzymatic activity assay (scintillation proximity assay). It is filed as biochemical. Conditions: for IC50: specific IC50 value lies within the given range, read-out: IC50 within range [nanomolar (nM)]. The protocol:
The PDE9A2 enzymatic activity assay was run as scintillation proximity assay (SPA), in general according to the protocol of the manufacturer (Amersham Biosciences, product number: TRKQ 7100).
As enzyme source, lysate (PBS with 1% Triton X-100 supplemented with protease inhibitors, cell debris removed by centrifugation at 13.000 rpm for 30 min) of SF 9 cell expressing the human PDE9A2 was used. The total protein amount included in the assay varied upon infection and production efficacy of the SF9 cells and lay in the range of 0.1-100 ng.
In general, the assay conditions were as follows: • total assay volume: 40 microliter • protein amount: 0.1-50 ng • substrate concentration (cGMP): 20 nanomolar; ˜1 mCi/l • incubation time: 60 min at room temperature • final DMSO concentration: 0.2-1%
The assays were run in 384-well format. The test reagents as well as the enzyme and the substrate were diluted in assay buffer. The assay buffer contained 50 mM Tris, 8.3 mM MgCl2, 1.7 mM EGTA, 0.1% BSA, 0.05% Tween 20; the pH of assay buffer was adjusted to 7.5. The reaction was stopped by applying a PDE9 specific inhibitor (e.g. compounds according to WO04099210 or WO04099211) in excess.
The activity of the positive control (minus the negative control=background) is set to 100% and activity in the presence of test compound is expressed relative to these 100%.
(In a scintillation proximity assay essentially only radioactivity close to the scintillant gives light.)

The target in the next experiment is human PDE9A (Homo sapiens, UniProt O76083). Conditions: concentrations of up to 100 micromolar; cited from earlier work.
For a further experiment, the target named is T2, Murine PDE9A (Mus musculus, UniProt O70628).
T2 sequence (O70628 1-534): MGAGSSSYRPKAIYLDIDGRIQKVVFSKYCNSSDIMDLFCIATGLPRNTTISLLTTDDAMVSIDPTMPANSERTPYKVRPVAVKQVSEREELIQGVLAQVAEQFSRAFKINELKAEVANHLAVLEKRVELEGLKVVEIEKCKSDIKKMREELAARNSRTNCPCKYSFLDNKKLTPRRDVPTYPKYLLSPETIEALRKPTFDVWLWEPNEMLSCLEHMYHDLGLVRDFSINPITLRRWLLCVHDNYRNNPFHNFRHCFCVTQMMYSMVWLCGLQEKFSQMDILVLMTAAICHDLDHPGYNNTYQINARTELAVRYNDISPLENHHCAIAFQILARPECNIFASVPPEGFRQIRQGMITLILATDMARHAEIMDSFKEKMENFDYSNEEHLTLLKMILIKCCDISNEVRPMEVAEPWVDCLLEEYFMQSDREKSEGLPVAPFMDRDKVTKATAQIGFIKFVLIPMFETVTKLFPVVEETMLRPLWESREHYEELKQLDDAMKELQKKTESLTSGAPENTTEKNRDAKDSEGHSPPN
Conditions: concentrations below 200 micromolar; cited from earlier work.

The structures appear in SMILES notation.

T1 sequence (O76083 1-533 isoform O76083-2): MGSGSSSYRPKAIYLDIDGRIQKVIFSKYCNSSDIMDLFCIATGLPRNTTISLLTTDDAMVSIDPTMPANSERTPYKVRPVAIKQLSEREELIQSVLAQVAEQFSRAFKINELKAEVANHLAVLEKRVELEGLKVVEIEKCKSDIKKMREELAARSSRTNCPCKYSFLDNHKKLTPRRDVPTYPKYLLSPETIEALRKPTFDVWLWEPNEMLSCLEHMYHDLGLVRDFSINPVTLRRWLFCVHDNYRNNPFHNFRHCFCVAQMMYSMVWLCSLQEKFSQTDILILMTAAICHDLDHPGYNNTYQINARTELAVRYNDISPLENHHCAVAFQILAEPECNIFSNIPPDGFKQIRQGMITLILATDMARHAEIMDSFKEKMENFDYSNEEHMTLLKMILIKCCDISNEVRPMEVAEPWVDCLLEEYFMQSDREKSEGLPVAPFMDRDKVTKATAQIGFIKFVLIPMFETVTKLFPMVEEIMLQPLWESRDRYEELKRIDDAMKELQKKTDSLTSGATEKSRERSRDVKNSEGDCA
Chain of human PDE9A (O76083 whole entry): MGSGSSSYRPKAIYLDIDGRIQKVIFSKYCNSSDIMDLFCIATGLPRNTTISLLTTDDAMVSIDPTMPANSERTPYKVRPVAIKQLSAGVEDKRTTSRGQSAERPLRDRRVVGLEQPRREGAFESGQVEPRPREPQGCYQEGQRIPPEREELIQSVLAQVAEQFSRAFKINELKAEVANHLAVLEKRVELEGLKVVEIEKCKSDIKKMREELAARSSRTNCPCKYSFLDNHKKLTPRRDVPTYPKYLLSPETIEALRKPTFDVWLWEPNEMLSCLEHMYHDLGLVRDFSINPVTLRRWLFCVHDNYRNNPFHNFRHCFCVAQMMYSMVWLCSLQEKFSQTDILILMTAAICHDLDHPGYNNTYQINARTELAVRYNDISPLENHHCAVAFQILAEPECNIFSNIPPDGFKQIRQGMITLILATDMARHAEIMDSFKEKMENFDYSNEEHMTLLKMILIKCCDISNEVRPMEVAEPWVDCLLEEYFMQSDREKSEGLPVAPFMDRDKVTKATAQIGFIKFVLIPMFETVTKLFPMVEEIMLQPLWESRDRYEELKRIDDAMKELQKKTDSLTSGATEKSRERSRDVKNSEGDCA

The inhibition is the drop in the measured response relative to a control, in per cent. As usually defined, the IC50 is the concentration that gives 50% inhibition. Regarding `Cc1ccncc1-n1ncc2c(=O)[nH]c(C3CC(C)(C)C3)nc21` [Example 35], the inhibition at 10 µM on human PDE9A2 (at 10 micromolar concentration, read-out: % inhibition of PDE9A2) is 50%. Also, on human PDE9A2, the IC50 was 201 to 5000 nM.
`Cc1ccccc1-n1ncc2c(=O)[nH]c(C3CC3)nc21` [Example 39]: the IC50 on human PDE9A2 was 201 to 5000 nM.
Take `CC(C)Cn1c(=O)n(C)c(=O)c2[nH]cnc21` [IBMX]: the “inhibition on the isolated enzyme” value on human PDE9A is given as “no inhibition”. Besides, the “inhibition of murine PDE9A” value on Murine PDE9A was “not inhibited”.
`CC(=O)Nc1ccc(-c2c[nH]c(=O)cn2)cc1` [SKF94120]: the “inhibition on the isolated enzyme” value on human PDE9A is reported as “no inhibition”.
For the molecule `OCCN(CCO)c1nc(N2CCCCC2)c2nc(N(CCO)CCO)nc(N3CCCCC3)c2n1` [dipyridamole], the “inhibition on the isolated enzyme” value on human PDE9A is listed as “no inhibition”.
Regarding `COc1ccc(C2CNC(=O)C2)cc1OC1CCCC1` (stereo not drawn) [rolipram], the “inhibition on the isolated enzyme” value on human PDE9A is listed as “no inhibition”.
For the molecule `CCOC(=O)C1=C[C@]2(CC)CCCN3CCc4c(n1c1ccccc41)[C@@H]32` [vinpocetine], at human PDE9A, the “inhibition on the isolated enzyme” value is “no inhibition”.

The record behind these values is patent US20110212960A1, “NEW COMPOUNDS FOR THE TREATMENT OF CNS DISORDER” (BOEHRINGER INGELHEIM INTERNATIONAL GMBH, priority 2009, published 2011).
